# Source: patent US20200392158A1, “INHIBITORS OF LEUCINE RICH REPEAT KINASE 2” (GLAXOSMITHKLINE INTELLECTUAL PROPERTY DEVELOPMENT LIMITED, priority 2017, published 2020)
# Biological target: T1, full length G2019 human LRRK2 (Homo sapiens, UniProt Q5S007, R50H)
# T1 construct: made in house; host or cells: HEK293 6E cells transduced with BacMam virus (virus generated in Sf9 cells)
# Assay: Full length G2019 human LRRK2 inhibition mass spectrometry assay
# Assay type: biochemical
# Conditions: LRRKtide to phospho-LRRKtide conversion, RapidFire MS, 2 mM ATP
# In short: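 Inhibition taken as reduced LRRKtide phosphorylation, quantified by RapidFire-coupled triple-quadrupole MS as product/(product+substrate) peak area. Reaction: 2 mM ATP, 25 μM peptide, ~25 nM full-length G2019 Flag-LRRK2, Hepes pH 7.2 buffer, room temperature for 1 h. 11-point 1-in-4 dilutions from 100 μM; logistic fit gives IC50, reported as pIC50.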
# T1 sequence (Q5S007 with tags, fused parts or gaps R50H): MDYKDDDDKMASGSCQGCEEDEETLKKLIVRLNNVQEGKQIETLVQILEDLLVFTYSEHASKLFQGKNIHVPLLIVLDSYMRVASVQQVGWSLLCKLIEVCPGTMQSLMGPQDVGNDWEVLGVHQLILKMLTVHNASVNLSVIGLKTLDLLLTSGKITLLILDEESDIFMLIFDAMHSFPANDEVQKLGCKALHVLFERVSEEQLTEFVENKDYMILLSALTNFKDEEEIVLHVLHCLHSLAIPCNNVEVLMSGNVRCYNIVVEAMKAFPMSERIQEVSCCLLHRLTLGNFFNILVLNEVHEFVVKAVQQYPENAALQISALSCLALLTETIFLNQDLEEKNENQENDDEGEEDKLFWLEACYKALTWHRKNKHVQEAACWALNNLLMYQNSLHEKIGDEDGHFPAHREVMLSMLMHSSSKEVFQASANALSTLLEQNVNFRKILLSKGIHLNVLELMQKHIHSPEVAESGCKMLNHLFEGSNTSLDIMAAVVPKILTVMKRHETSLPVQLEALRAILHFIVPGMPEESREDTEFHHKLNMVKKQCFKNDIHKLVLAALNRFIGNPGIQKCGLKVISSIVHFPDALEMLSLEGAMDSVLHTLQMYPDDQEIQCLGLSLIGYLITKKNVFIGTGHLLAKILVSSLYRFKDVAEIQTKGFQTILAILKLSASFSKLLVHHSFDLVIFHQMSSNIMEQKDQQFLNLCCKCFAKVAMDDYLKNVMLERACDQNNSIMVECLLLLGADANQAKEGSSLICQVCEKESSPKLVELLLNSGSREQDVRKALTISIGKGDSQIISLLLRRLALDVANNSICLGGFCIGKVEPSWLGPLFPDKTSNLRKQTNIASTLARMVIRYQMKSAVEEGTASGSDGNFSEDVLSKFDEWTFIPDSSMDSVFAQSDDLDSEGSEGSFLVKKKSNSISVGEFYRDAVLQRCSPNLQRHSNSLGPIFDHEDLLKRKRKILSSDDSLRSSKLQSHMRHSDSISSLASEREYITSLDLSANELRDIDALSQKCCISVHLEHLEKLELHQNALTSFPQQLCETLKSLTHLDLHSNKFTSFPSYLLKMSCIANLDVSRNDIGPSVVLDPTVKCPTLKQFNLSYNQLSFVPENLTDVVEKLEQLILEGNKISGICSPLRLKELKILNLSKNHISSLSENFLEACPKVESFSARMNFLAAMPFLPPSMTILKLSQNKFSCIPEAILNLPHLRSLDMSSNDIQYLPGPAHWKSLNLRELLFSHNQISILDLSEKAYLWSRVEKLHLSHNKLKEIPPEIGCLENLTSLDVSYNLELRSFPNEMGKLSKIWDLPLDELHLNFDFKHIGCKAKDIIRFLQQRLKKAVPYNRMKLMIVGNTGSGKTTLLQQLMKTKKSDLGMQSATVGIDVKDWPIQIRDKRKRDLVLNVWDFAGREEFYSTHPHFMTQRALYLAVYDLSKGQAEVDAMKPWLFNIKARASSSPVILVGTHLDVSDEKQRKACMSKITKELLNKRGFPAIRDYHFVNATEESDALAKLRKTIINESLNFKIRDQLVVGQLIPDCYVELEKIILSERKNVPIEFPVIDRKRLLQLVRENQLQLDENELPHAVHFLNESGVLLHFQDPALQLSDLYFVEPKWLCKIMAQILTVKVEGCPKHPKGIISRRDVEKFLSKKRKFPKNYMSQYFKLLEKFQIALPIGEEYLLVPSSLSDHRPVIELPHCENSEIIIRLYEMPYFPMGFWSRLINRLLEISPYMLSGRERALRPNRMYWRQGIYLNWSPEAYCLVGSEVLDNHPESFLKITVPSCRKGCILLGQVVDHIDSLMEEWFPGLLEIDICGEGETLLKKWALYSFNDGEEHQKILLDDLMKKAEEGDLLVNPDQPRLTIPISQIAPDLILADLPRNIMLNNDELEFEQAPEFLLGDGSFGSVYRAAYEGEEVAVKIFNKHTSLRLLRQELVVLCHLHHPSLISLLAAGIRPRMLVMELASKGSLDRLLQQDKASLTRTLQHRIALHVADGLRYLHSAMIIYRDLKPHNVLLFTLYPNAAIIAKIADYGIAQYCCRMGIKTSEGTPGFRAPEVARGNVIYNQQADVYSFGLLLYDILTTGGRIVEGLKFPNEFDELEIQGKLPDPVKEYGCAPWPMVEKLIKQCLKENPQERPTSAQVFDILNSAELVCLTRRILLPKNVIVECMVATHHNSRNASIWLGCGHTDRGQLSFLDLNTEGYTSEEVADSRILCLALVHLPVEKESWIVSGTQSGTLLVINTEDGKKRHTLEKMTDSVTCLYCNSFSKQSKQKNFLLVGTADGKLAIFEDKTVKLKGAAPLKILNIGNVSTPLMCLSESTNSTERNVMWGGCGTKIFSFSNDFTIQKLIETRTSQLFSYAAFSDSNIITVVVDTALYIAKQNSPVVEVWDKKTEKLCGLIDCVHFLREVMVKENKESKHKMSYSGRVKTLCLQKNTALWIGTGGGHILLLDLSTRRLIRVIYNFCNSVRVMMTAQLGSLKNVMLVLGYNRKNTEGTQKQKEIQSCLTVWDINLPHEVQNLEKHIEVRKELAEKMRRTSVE
row,Structure (SMILES),IC50 [nM]
1,"CCC1CCOc2nn(C3COC3)c(C)c2Nc2ncc(Cl)c(n2)N1 (single isomer, unassigned) [E320, 14-Chloro-11-ethyl-4-methyl-5-(oxetan-3-yl)-8-oxa-2,5,6,12,16,17-hexaazatricyclo[11.3.1.0^3,7]heptadeca-1(16), 3,6,13(17),14-pentaene]",≤ 100
2,"COCC1CCOc2nn(C3CCOCC3F)c(C)c2Nc2ncc(Cl)c(n2)N1 (single isomer, unassigned) [E352, 14-Chloro-5-(3-fluorooxan-4-yl)-11-(methoxymethyl)-4-methyl-8-oxa-2,5,6,12,16,17-hexaazatricyclo [11.3. 1.0^3,7]heptadeca-1(16),3,6,13(17),14-pentaene]",≤ 100
3,"COCC1CCOc2nn(C3CCOCC3F)c(C)c2Nc2ncc(Cl)c(n2)N1 (single isomer, unassigned) [E353, 14-Chloro-5-(3-fluorooxan-4-yl)-11-(methoxymethyl)-4-methyl-8-oxa-2,5,6,12,16,17-hexaazatricyclo [11.3. 1.0^3,7]heptadeca-1(16),3,6,13(17),14-pentaene]",≤ 100
4,"COCC1CCOc2nn(C3CCOCC3F)c(C)c2Nc2ncc(Cl)c(n2)N1 (single isomer, unassigned) [E354, 14-Chloro-5-(3-fluorooxan-4-yl)-11-(methoxymethyl)-4-methyl-8-oxa-2,5,6,12,16,17-hexaazatricyclo [11.3. 1.0^3,7]heptadeca-1(16),3,6,13(17),14-pentaene]",≤ 100
5,"COCC1CCOc2nn(C3CCOCC3F)c(C)c2Nc2ncc(Cl)c(n2)N1 (single isomer, unassigned) [E355, 14-Chloro-5-(3-fluorooxan-4-yl)-11-(methoxymethyl)-4-methyl-8-oxa-2,5,6,12,16,17-hexaazatricyclo [11.3. 1.0^3,7]heptadeca-1(16),3,6,13(17),14-pentaene]",≤ 100
6,"COCC1CCOc2nn(C3CCOCC3F)c(C)c2Nc2ncc(Cl)c(n2)N1 (single isomer, unassigned) [E356, 14-Chloro-5-(3-fluorooxan-4-yl)-11-(methoxymethyl)-4-methyl-8-oxa-2,5,6,12,16,17-hexaazatricyclo [11.3. 1.0^3,7]heptadeca-1(16),3,6,13(17),14-pentaene]",≤ 10000
7,"COCC1CCOc2nn(C3CCOCC3F)c(C)c2Nc2ncc(Cl)c(n2)N1 (single isomer, unassigned) [E357, 14-Chloro-5-(3-fluorooxan-4-yl)-11-(methoxymethyl)-4-methyl-8-oxa-2,5,6,12,16,17-hexaazatricyclo [11.3. 1.0^3,7]heptadeca-1(16),3,6,13(17),14-pentaene]",≤ 100
8,"COCC1CCOc2nn(C3CCOCC3F)c(C)c2Nc2ncc(Cl)c(n2)N1 (single isomer, unassigned) [E358, 14-Chloro-5-(3-fluorooxan-4-yl)-11-(methoxymethyl)-4-methyl-8-oxa-2,5,6,12,16,17-hexaazatricyclo [11.3. 1.0^3,7]heptadeca-1(16),3,6,13(17),14-pentaene]",≤ 100
9,"Cc1c2c(nn1C1CCC(N3CCOCC3)C1)OCCCNc1nc(ncc1Cl)N2 (single isomer, unassigned) [E370, 14-Chloro-4-methyl-5-[3-(morpholin-4-yl)cyclopentyl]-8-oxa-2,5,6,12,16,17-hexaazatricyclo[11.3.1.0^3,7] heptadeca-1(16),3,6,13(17),14-pentaene]",≤ 10000
10,"Cc1c2c(nn1C1CN(C3COC3)CCC1F)OCC[C@@H](C)Nc1nc(ncc1Cl)N2 (single isomer, unassigned) [E404]",≤ 100
11,"Cc1c2c(nn1C1CCN(C3COC3)CC1(F)F)OCCCNc1nc(ncc1Cl)N2 (single isomer, unassigned) [E405, 14-Chloro-5-[3,3-difluoro-1-(oxetan-3-yl)piperidin-4-yl]-4-methyl-8-oxa-2,5,6,12,16,17-hexaazatricyclo[11.3.1.0^3,7]heptadeca-1(16),3,6,13(17),14-pentaene]",≤ 100
12,"Cc1c2c(nn1C1CCOCC1(F)F)OCCCNc1nc(ncc1Cl)N2 (single isomer, unassigned) [E414]",≤ 100
13,"Cc1c2c(nn1C1CCOCC1(C)C)OCC[C@@H](C)Nc1nc(ncc1Cl)N2 (single isomer, unassigned) [E423]",≤ 100
14,"C[C@@H]1CCOc2nn(C3CCN(C4COC4)CC3(F)F)c(Cl)c2Nc2ncc(Cl)c(n2)N1 (single isomer, unassigned) [E445]",≤ 100
15,"Cc1c2c(nn1C1CCOCC1)OCC[C@H](C)Nc1nc(ncc1Cl)N2 [E7, (11S)-14-Chloro-4,11-dimethyl-5-(oxan-4-yl)-8-oxa-2,5,6,12,16,17-hexaazatricyclo [11.3.1.0^3,7]heptadeca-1(16),3,6,13(17),14-pentaene]",≤ 10000
16,"Clc1cnc2nc1NCCCOc1nn(C3CCCOC3)cc1N2 (stereo not drawn) [E9, 14-Chloro-5-(oxan-3-yl)-8-oxa-2,5,6,12,16,17-hexaazatricyclo[11.3.1.0^3,7]heptadeca-1(16),3,6,13(17),14-pentaene]",≤ 10000
17,"Cc1c2c(nn1C1CCOCC1)OCCNc1nc(ncc1Cl)N2 [E138, 13-Chloro-4-methyl-5-(oxan-4-yl)-8-oxa-2,5,6,11,15,16-hexaaza tricyclo[10.3.1.0^3,7]hexadeca-1(15),3,6,12(16),13-pentaene]",≤ 10000
18,"Clc1cnc2nc1NCCCOc1nn(C3CCOCC3)c(C3CC3)c1N2 [E147, 14-Chloro-4-cyclopropyl-5-(oxan-4-yl)-8-oxa-2,5,6,12,16,17-hexaazatricyclo[11.3.1.0^3,7]heptadeca-1(16),3,6,13(17),14-pentaene]",≤ 10000
19,"Cc1c2c(nn1C(C)(C)C(N)=O)OCCCNc1nc(ncc1Cl)N2 [E190, 2-{14-Chloro-4-methyl-8-oxa-2,5,6,12,16,17-hexaazatricyclo [11.3.1.0^3,7]heptadeca-1(16),3,6,13(17),14-pentaen-5-yl}-2-methylpropanamide]",≤ 10000
20,"Cc1c2c(nn1CC(C)(C)O)OCCCNc1nc(ncc1Cl)N2 [E263, 1-{14-Chloro-4-methyl-8-oxa-2,5,6,12,16,17-hexaazatricyclo [11.3.1.0^3,7]heptadeca-1(16),3,6,13(17),14-pentaen-5-yl}-2-methylpropan-2-ol]",≤ 10000
21,"COc1cnc2nc1N[C@H](C)CCOc1nn(C3CCOCC3)c(C)c1N2 [E294, (11R)-14-Methoxy-4,11-dimethyl-5-(oxan-4-yl)-8-oxa-2,5,6,12,16, 17-hexaazatricyclo[11.3.1.0^3,7]heptadeca-1(16),3,6,13(17),14-pentaene]",≤ 10000
22,"Cc1c2c(nn1C1CCOCC1)OCC[C@@H](C)Nc1nc(ncc1F)N2 [E295, (11R)-14-Fluoro-4,11-dimethyl-5-(oxan-4-yl)-8-oxa-2,5,6,12,16,17-hexaazatricyclo[11.3.1.0^3,7]heptadeca-1(16),3,6,13(17),14-pentaene]",≤ 100
23,"Cc1cnc2nc1N[C@H](C)CCOc1nn(C3CCOCC3)c(C)c1N2 [E296, (11R)-14-Methyl-4,11-dimethyl-5-(oxan-4-yl)-8-oxa-2,5,6,12,16,17-hexaazatricyclo[11.3.1.0^3,7]heptadeca-1(16),3,6,13(17),14-pentaene]",≤ 10000
24,"Cc1c2c(nn1C1CCOCC1)OCC[C@@H](C(C)C)Nc1nc(ncc1Cl)N2 [E298, (11S)-14-Chloro-4-methyl-5-(oxan-4-yl)-11-(propan-2-yl)-8-oxa-2,5,6,12,16,17-hexaazatricyclo[11.3.1.0^3,7]heptadeca-1(16),3,6,13(17),14-pentaene]",≤ 100
